In patent US10968203B2, “Pyrimidinyl-pyridyloxy-naphthyl compounds and methods of treating IRE1-related diseases and disorders” (Genentech, Inc., priority 2017, dated 2021) one finds IC50 data, which are given here for 24 compounds.

A word on the pIC50: it is −log10 of the IC50, conventionally taken in molar units.

Each structure is given as a SMILES string. pIC50: −log10 of the molar value. Structures can show the parent of a compound that is named as a salt. Where two headings read alike, the source gives them in different places.

This test relates to XBP1s-luc 293 LUC. Nature of the test: cellular PD assay, XBP1s-LUC reporter (Example 903). In kind it is cell-based. The conditions noted are these: read-out: XBP1s-luc 293 LUC (IC50). As to the method: Inhibition of IRE1α RNase activity was determined in an enzyme assay that measured cleavage of the XBP1 stem loop by autophosphorylated IRE1α. This assay format was chosen to ensure that inhibitors of either the IRE1α kinase or the RNase domains would be identified. Binding to the ATP pocket and inhibition of IRE1α kinase activity are not necessarily required to inhibit the RNase activity. Compounds were also profiled in cellular assays by direct measurement of XBP s (B-DNA assay) or by quantification of the luciferase signal in HT1080 XBP1-Luc, which carries a luciferase fusion that is only in frame and expressed from the spliced XBP1 transcript.
Biological activity of Formula I or I′ compounds was measured by an IRE1 biochemical binding assay (Example 901), a biochemical RNase assay (Example 902), a cellular PD assay, XBP1s-LUC reporter (Example 903), and an IRE1α-based inhibition of multiple myeloma (MM) cell proliferation assay.
All of the exemplary Formula I or I′ compounds in Tables 1 and 2 were made and characterized by LCMS [M+H]^+ (liquid chromatography mass spectroscopy) with detection of parent ion. All of the exemplary Formula I compounds in Tables 1 and 2 were prepared according to the procedures of the Schemes, General Procedures, and Examples. All of the exemplary Formula I or I′ compounds in Tables 1 and 2 were tested for binding to IRE1 (inositol requiring enzyme 1 alpha) and biological activity according to the assays and protocols of Example 901-903. Exemplary Formula I or I′ compounds in Tables 1 and 2 have the following structures, corresponding IUPAC names (ChemBioDraw, Version 12.0.2, CambridgeSoft Corp., Cambridge Mass.), and biological activity. Where more than one name is associated with a Formula I or I′ compound or intermediate in Tables 1 and 2 and the Experimental Procedures, the chemical structure shall define the compound. Assignment of configuration at chiral centers in separated stereoisomers may be tentative, and depicted in Tables 1 and 2 structures for illustrative purposes, before stereochemistry is definitively established, such as from x-ray crystallographic data. In some cases, stereoisomers are separated and tested for biological activity before the stereochemistry of the separated stereoisomers is determined; and stereochemistry in some instances was inferred based on structure-activity relationship (SAR) knowledge from previous compounds. In some cases, the compounds are tested as racemic or diastereomeric mixtures. Where more than one potency value is entered on a row, separated stereoisomers represented by the structure and name on that row were tested. Exemplary compounds of Formula I or I′ in Table 3 can be prepared using methods known in the art or according to procedures similar to those described in the Schemes, General Procedures, and Examples 101-500. Biological activities of compounds in Table 3 can be tested in biological assays, for example, those in Examples 901, 902 and 903 described herein.

On to `CC[C@H](C)C(=O)Nc1cccc2c(Oc3ncccc3-c3ccnc(N[C@H]4CCCNC4)n3)c(C)ccc12` [Example 203, (S)-2-methyl-N-(6-methyl-5-((3-(2-(((S)-piperidin-3-yl)amino)pyrimidin-4-yl)pyridin-2-yl)oxy)naphthalen-1-yl)butanamide], for which the pIC50 (Table 1) is 6.79. With `Cc1ccc2c(NC(=O)C3(F)CC3)cccc2c1Oc1ncccc1-c1ccnc(N[C@H]2CCCNC2)n1` [Example 155, (S)-1-Fluoro-N-(6-methyl-5-((3-(2-(piperidin-3-ylamino)pyrimidin-4-yl)pyridin-2-yl)oxy)naphthalen-1-yl)cyclopropane-1-carboxamide], under “Table 1”, the pIC50 is 6.42. Regarding `Cc1ccc2c(NS(=O)(=O)Cc3cccc(C#N)c3)c(F)ccc2c1Oc1ncccc1-c1ccnc(N[C@H]2CCCNC2)n1` [Example 425, (S)-1-(3-Cyanophenyl)-N-(2-fluoro-6-methyl-5-((3-(2-(piperidin-3-ylamino)pyrimidin-4-yl)pyridin-2-yl)oxy)naphthalen-1-yl)methanesulfonamide hydrochloride], the pIC50 (Table 2) was 7.80.

For `Cc1ccc2c(NS(=O)(=O)Cc3ccccn3)cccc2c1Oc1ncccc1-c1ccnc(N[C@H]2CCCNC2)n1` [Example 126, (S)—N-(6-Methyl-5-((3-(2-(piperidin-3-ylamino)pyrimidin-4-yl)pyridin-2-yl)oxy)naphthalen-1-yl)-1-(pyridin-2-yl)methanesulfonamide hydrochloride], under “Table 1”, the pIC50 was 7.27.

As for `Cc1ccc2c(NCCC(F)(F)F)cccc2c1Oc1ncccc1-c1ccnc(N[C@H]2CCCNC2)n1` [Example 348, (S)-4-(2-((2-Methyl-5-((3,3,3-trifluoropropyl)amino)naphthalen-1-yl)oxy)pyridin-3-yl)-N-(piperidin-3-yl)pyrimidin-2-amine], the pIC50 (Table 1) was 7.10. In the case of `Cc1ccc2c(NS(=O)(=O)Cc3ccn(C)n3)c(F)ccc2c1Oc1ncccc1-c1ccnc(N[C@H]2CCCNC2)n1` [Example 449, N-[2-Fluoro-6-methyl-5-[[3-[2-[[(3S)-3-piperidyl]amino]pyrimidin-4-yl]-2-pyridyl]oxy]-1-naphthyl]-1-(1-methylpyrazol-3-yl)methanesulfonamide hydrochloride], the pIC50 (Table 2) was 7.60.

As to `Cc1ccc2c(NC(=O)C3CC3C(F)(F)F)cccc2c1Oc1ncccc1-c1ccnc(N[C@H]2CCCNC2)n1` (single isomer, unassigned) [Example 227], the pIC50 (Table 1) is 6.31. Still for that read-out and setting: next, `Cc1ccc2c(NS(=O)(=O)Cc3ccccc3C(F)(F)F)c(F)ccc2c1Oc1ncccc1-c1ccnc(N[C@H]2CCCNC2)n1` [Example 392, (S)—N-(2-Fluoro-6-methyl-5-((3-(2-(piperidin-3-ylamino)pyrimidin-4-yl)pyridin-2-yl)oxy)naphthalen-1-yl)-1-(2-(trifluoromethyl)phenyl)methanesulfonamide]: 8.20; `Cc1ccc2c(NS(=O)(=O)N3CCC3)cccc2c1Oc1ncccc1-c1ccnc(N[C@H]2CCCNC2)n1` [Example 195, (S)—N-(6-Methyl-5-((3-(2-(piperidin-3-ylamino)pyrimidin-4-yl)pyridin-2-yl)oxy)naphthalen-1-yl)azetidine-1-sulfonamide]: 6.69. In the case of `Cc1ccc2c(N3CCCC3=O)cccc2c1Oc1ncccc1-c1ccnc(N[C@H]2CCCNC2)n1` [Example 216, (S)-1-(6-Methyl-5-((3-(2-(piperidin-3-ylamino)pyrimidin-4-yl)pyridin-2-yl)oxy)naphthalen-1-yl)pyrrolidin-2-one], the pIC50 (Table 1) was 6.59.

As to `Cc1ccc2c(NS(=O)(=O)c3cccnc3)cccc2c1Oc1ncccc1-c1ccnc(N[C@H]2CCCNC2)n1` [Example 149, (S)—N-(6-Methyl-5-((3-(2-(piperidin-3-ylamino)pyrimidin-4-yl)pyridin-2-yl)oxy)naphthalen-1-yl)pyridine-3-sulfonamide], the pIC50 (Table 1) is 6.31. `Cc1ccc2c(NC(=O)[C@H]3CC34CC4)cccc2c1Oc1ncccc1-c1ccnc(N[C@H]2CCCNC2)n1` (single isomer, unassigned) [Example 217]: the pIC50 (Table 1) is 7.26.

For the compound `Cc1ccc2c(NCC(O)C(C)C)cccc2c1Oc1ncccc1-c1ccnc(N[C@H]2CCCNC2)n1` (single isomer, unassigned) [Example 462, hydrochloride], the pIC50 (Table 2) was 6.96.

In the case of `Cc1ccc2c(NS(=O)(=O)Cc3ccc(OC(F)(F)F)cc3)c(F)ccc2c1Oc1ncccc1-c1ccnc(N[C@H]2CCCNC2)n1` [Example 419, (S)—N-(2-Fluoro-6-methyl-5-((3-(2-(piperidin-3-ylamino)pyrimidin-4-yl)pyridin-2-yl)oxy)naphthalen-1-yl)-1-(4-(trifluoromethoxy)phenyl)methanesulfonamide hydrochloride], the pIC50 (Table 2) is 6.89. Consider `Cc1ccc2c(NC(=O)C3CC34CCOC4)cccc2c1Oc1ncccc1-c1ccnc(N[C@H]2CCCNC2)n1` (mixture of isomers) [Example 289, N-(6-Methyl-5-((3-(2-(((S)-piperidin-3-yl)amino)pyrimidin-4-yl)pyridin-2-yl)oxy)naphthalen-1-yl)-5-oxaspiro[2.4]heptane-1-carboxamide], for which, for the setting “Table 1”, the pIC50 is 6.37. Regarding `CC[C@H]1CCN(c2cccc3c(Oc4ncccc4-c4ccnc(N[C@H]5CCCNC5)n4)c(C)ccc23)C1=O` (single isomer, unassigned) [Example 355], where the note is “Table 1”, the pIC50 was 6.44. The same measure, in the same setting: next, `Cc1ccc2c(NS(=O)(=O)CC(F)(F)F)c(F)ccc2c1Oc1ncccc1-c1ccnc(N[C@@H]2CNC[C@H](C)C2)n1` [Example 375, 2,2,2-Trifluoro-N-(2-fluoro-6-methyl-5-((3-(2-(((3S,5R)-5-methylpiperidin-3-yl)amino)pyrimidin-4-yl)pyridin-2-yl)oxy)naphthalen-1-yl)ethanesulfonamide]: 7.88. `Cc1nc(CNc2c(F)ccc3c(Oc4ncccc4-c4ccnc(N[C@H]5CCCNC5)n4)c(C)ccc23)cs1` [Example 371, (S)-4-(2-((6-Fluoro-2-methyl-5-(((2-methylthiazol-4-yl)methyl)amino)naphthalen-1-yl)oxy)pyridin-3-yl)-N-(piperidin-3-yl)pyrimidin-2-amine]: the pIC50 (Table 1) was 6.42.

Turning to `Cc1ccc2c(NS(=O)(=O)Cc3ccccc3)cccc2c1Oc1ncccc1-c1ccnc(N[C@@H]2CNC[C@H](C)C2)n1` [Example 479, N-[6-Methyl-5-[[3-[2-[[(3S,5R)-5-methyl-3-piperidyl]amino]pyrimidin-4-yl]-2-pyridyl]oxy]-1-naphthyl]-1-phenyl-methanesulfonamide], the pIC50 (Table 2) was 7.92. Turning to `Cc1ccc2c(NS(=O)(=O)Cc3ccc(C(F)F)cc3)c(F)ccc2c1Oc1ncccc1-c1ccnc(N[C@H]2CCCNC2)n1` [Example 438, (S)-1-(4-(Difluoromethyl)phenyl)-N-(2-fluoro-6-methyl-5-((3-(2-(piperidin-3-ylamino)pyrimidin-4-yl)pyridin-2-yl)oxy)naphthalen-1-yl)methanesulfonamide hydrochloride], the pIC50 (Table 2) is 8.30. For the compound `Cc1ccc2c(NS(=O)(=O)CC(C)(C)C)c(F)ccc2c1Oc1ncccc1-c1ccnc(N[C@H]2CCCNC2)n1` [Example 350, (S)—N-(2-Fluoro-6-methyl-5-((3-(2-(piperidin-3-ylamino)pyrimidin-4-yl)pyridin-2-yl)oxy)naphthalen-1-yl)-2,2-dimethylpropane-1-sulfonamide], the pIC50 (Table 1) is 7.43.

Consider `Cc1ccc2c(N[C@@H]3CCC[C@H]3O)cccc2c1Oc1ncccc1-c1ccnc(N[C@H]2CCCNC2)n1` (single isomer, unassigned) [Example 395, hydrochloride], for which the pIC50 (Table 2) was 6.96. Turning to `Cc1ccc2c(NC(=O)CC(F)(F)F)cccc2c1Oc1ncccc1-c1ccnc(N[C@H]2CCCNC2)n1` [Example 252, (S)-3,3,3-Trifluoro-N-(6-methyl-5-(3-(2-(piperidin-3-ylamino)pyrimidin-4-yl)pyridin-2-yloxy)naphthalen-1-yl)propanamide], the negative logarithm of the IC50 (pIC50) (Table 1) was 6.87. For the compound `Cc1ccc2c(NS(=O)(=O)Cc3noc4ccccc34)c(F)ccc2c1Oc1ncccc1-c1ccnc(N[C@H]2CCCNC2)n1` [Example 443, (S)-1-(Benzo[d]isoxazol-3-yl)-N-(2-fluoro-6-methyl-5-((3-(2-(piperidin-3-ylamino)pyrimidin-4-yl)pyridin-2-yl)oxy)naphthalen-1-yl)methanesulfonamide hydrochloride], the pIC50 (Table 2) was 8.10.
